Assay results reported in patent US20260248767A1, “METHODS FOR INDUCING FERROPTOSIS IN CANCER” (Board of Regents, The University of Texas System, priority 2023, published 2026).
Entries after “also recorded” stand apart in the source; their conditions may differ.

Assays:
[1] = tested on: NADP+/NADPH; assay: NADP+ and NADPH measurement; assay type: cell-based; conditions: treated vs untreated cells
[2] = molecular target: T1, SHMT2 protein (Homo sapiens, UniProt P34897); assay: SHMT2 tetramer formation (immunoblot); assay type: cell-based; conditions: sulfite treatment
T1 construct: endogenous in cells
T1 sequence (P34897 30-504): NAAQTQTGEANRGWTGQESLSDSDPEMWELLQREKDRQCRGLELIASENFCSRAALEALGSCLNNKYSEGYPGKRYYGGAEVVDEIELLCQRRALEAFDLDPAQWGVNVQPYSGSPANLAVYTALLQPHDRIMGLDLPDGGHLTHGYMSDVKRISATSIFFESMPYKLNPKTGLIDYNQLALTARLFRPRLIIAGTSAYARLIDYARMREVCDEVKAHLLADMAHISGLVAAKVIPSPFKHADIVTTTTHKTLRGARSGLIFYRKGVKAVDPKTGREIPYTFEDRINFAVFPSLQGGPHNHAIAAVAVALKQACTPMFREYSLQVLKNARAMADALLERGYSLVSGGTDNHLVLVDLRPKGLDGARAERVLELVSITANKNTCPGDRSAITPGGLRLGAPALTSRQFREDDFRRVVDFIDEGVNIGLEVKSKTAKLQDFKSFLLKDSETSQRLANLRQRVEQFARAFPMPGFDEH
Source text: Exogenously expressed SHMT2 was also able to form tetramer (FIG. 8B).
To generate cell lines with stable overexpression of C-terminal-tagged SHMT2, the SHMT2 cDNA was cloned into the lentivirus expression vector pLEX_307 SFB. HEK293T cells were transfected with either pLEX_307 SFB-empty vector, or -SHMT2, together with the lentiviral packaging plasmids psPAX2 and pMD2.G using Lipofectamine 2000 reagent (Life Technologies, #11668030) according to the manufacturer's instructions and as described previously (Lei, G. et al. Oncogene 40, 3533-3547, doi: 10.1038/s41388-021-01790-w (2021); Lei, G. et al. Cell Res 30, 146-162, doi: 10.1038/s41422-019-0263-3 (2020)). Forty-eight hours later, lentivirus was collected and filtered, and the target cell lines were infected with lentivirus. Twenty-four hours after infection, antibiotic was added to the medium to obtain stable cell lines. Protein expression levels were determined by immunoblotting. To generate knockdown cell lines, lentiviral transduction with IDH1/ME1/MTHFD21 shRNA vectors was conducted as described previously (Lin, A. et al. Cancer Res 74, 1682-1693, doi: 10.1158/0008-5472.CAN-13-1729 (2014)). Forty-eight hours later, upon puromycin antibiotic selection, protein expression levels were determined by immunoblotting.
Briefly, cells were lysed in NP-40 lysis buffer (50 mM Tris [pH 7.4], 250 mM NaCl, 5 mM EDTA, 50 mM NaF, 1 mM Na3VO4, 1% Nonidet P40) containing complete mini protease inhibitors (Roche). The protein concentration of lysates was quantified using BCA Protein Assay Kit from Life Technologies (#23227). 20 μg of total protein was loaded into SDS-PAGE gel and transferred to a PVDF membrane (Bio-Rad) using standard techniques. […]

[3] = tested on: SHMT2; assay: Protein level after sulfite treatment (Western blotting), SHMT2; assay type: cell-based; conditions: following treatment with sulfite
Protocol: To test if sulfite changed mitochondrial protein levels, SHMT2 and MTHFD2 protein levels were measured following treatment with sulfite. No changes in protein levels were observed (FIG. 9).
Briefly, cells were lysed in NP-40 lysis buffer (50 mM Tris [pH 7.4], 250 mM NaCl, 5 mM EDTA, 50 mM NaF, 1 mM Na3VO4, 1% Nonidet P40) containing complete mini protease inhibitors (Roche). The protein concentration of lysates was quantified using BCA Protein Assay Kit from Life Technologies (#23227). 20 μg of total protein was loaded into SDS-PAGE gel and transferred to a PVDF membrane (Bio-Rad) using standard techniques. The primary antibodies and concentrations used for Western blotting were Vinculin (1:1000, Sigma-Aldrich, #V4505), SUOX (1:1000, Abcam, #ab129094), SHMT2 (1:1000, Sigma-Aldrich, #HPA-020549), IDH1 (1:1000, Proteintech, #12332-1-AP), ME1 (1:1000,), MTHFD2 (1:1000, Abcam, #ab56772), Flag (1:1000, Sigma, #F1804), GPX4 (1:1,000, R&D, #MAB5457), COQ2 (1:1,000, Santa Cruz, sc-517107) and FSP1 (1:1000, Proteintech, #20886-1-AP).

[4] = tested on: HT-1080, 786-O, U87, T98G, RCC4, H1299, A549, Hela and Hs578T; assay: Cell death assay (PI flow cytometry), panel of cancer cell lines; assay type: cell-based, human
Protocol: All cell lines used in this study were free of mycoplasma contamination (per testing done by the vendor). All the cells were cultured in a 37° C. incubator in a 5% CO2 atmosphere. H1299 cells were cultured in RPMI-1640 medium supplemented with 10% fetal bovine serum and 10,000 U/mL penicillin-streptomycin. HT-1080, 786-O, U87, T98G, RCC4, A549, Hela and Hs578T cells were cultured in Dulbecco modified Eagle medium (DMEM) supplemented with 10% fetal bovine serum and 10,000 U/mL of penicillin-streptomycin.
After treatment, cells were trypsinized and collected. […] All experiments were performed in triplicates.

## O=S([O-])[O-].[Na+].[Na+] [sulfite, sodium sulfite]
[1]
  NADP+/NADPH ratio: increase
[2]
  tetramer formation of endogenous SHMT2 protein: disrupt the tetramer formation; also recorded: inhibits the tetramer formation
  tetramer formation of exogenous expressed SHMT2: inhibit the tetramer formation
[2]; listed as Sulfite
  tetramer formation of exogenous expressed SHMT2: inhibited the tetramer formation
[3]
  SHMT2 protein level: No changes
[4]; RSL3 0.2-2.0 μm plus sulfite 0.5-2 mM depending on cell line
  ferroptosis (cell death) in combination with RSL3: induced statistically significant ferroptosis
[4]; sulfite alone, 0.5-2 mM depending on cell line
  induction of ferroptosis (cell death): did not show induction of ferroptosis
